Source: patent publication US9090593B2, “Bicyclic compounds as Pim inhibitors” (AMGEN INC., priority 2010, dated 2015)
Like-named read-outs stand apart in the source and are kept apart here.

How the values were obtained:
[1] = target: T1, full length recombinant Pim-1 protein (Homo sapiens, UniProt P11309); assay: Pim-1 enzyme assay (HTRF, phosphorylation of biotinylated-BAD (S112) peptide); assay type: biochemical; conditions: enzyme assay, Pim-1; read-out: Pim_1_IC50
T1 construct: by full length recombinant Pim-1, Pim-2, or Pim-3 protein; hexahistidine tag followed by a thrombin cleavage site (N); made in house; host or cells: Sf9 (baculovirus) or E. coli (pET28)
T1 sequence (P11309 whole entry): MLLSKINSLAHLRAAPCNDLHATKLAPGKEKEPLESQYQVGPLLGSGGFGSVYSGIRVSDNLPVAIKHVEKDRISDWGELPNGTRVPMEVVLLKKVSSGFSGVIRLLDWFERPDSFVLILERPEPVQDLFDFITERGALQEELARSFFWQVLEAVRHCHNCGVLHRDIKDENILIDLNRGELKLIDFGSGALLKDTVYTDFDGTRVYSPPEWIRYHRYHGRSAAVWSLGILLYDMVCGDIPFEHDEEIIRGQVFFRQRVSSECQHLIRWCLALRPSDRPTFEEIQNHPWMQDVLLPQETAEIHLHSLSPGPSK
Summary of the method: (§1)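 Inhibition is reported as IC50 from a 4-parameter logistic fit of percent-of-control HTRF signal, which tracks phospho-BAD (S112) formed by full-length human Pim-1 or Pim-2. Reactions ran in 60 mM Hepes, pH 7.0, 0.05% BSA, 2 mM DTT.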

[2] = target: T2, full length recombinant Pim-2 protein (Homo sapiens, UniProt Q9P1W9); assay: Pim-2 enzyme assay (HTRF, phosphorylation of biotinylated-BAD (S112) peptide); assay type: biochemical; conditions: enzyme assay, Pim-2; read-out: Pim2_IC50
T2 construct: by full length recombinant Pim-1, Pim-2, or Pim-3 protein; hexahistidine tag followed by a thrombin cleavage site (N); made in house; host or cells: Sf9 (baculovirus) or E. coli (pET28)
T2 sequence (Q9P1W9 whole entry): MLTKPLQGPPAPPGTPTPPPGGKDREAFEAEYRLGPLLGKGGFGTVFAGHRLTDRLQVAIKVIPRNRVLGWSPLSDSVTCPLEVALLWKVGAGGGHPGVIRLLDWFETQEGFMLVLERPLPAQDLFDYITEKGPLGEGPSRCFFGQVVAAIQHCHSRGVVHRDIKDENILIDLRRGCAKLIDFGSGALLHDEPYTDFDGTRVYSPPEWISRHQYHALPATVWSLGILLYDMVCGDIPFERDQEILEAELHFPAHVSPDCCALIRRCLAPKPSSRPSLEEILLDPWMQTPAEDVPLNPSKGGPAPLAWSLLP
Summary of the method: as §1

[3] = target: T3, full length recombinant Pim-3 protein (Homo sapiens, UniProt Q86V86); assay: Pim-3 enzyme assay (HTRF, phosphorylation of biotinylated-BAD (S112) peptide); assay type: biochemical; conditions: read-out: Pim3 IC50
T3 construct: by full length recombinant Pim-1, Pim-2, or Pim-3 protein; purchased Millipore (UK)
Text: Pim-3 was purchased from Millipore (UK).
The phosphorylation of biotinylated-BAD (S112) peptide by full length recombinant Pim-1, Pim-2, or Pim-3 protein was detected with streptavidin:Allophycocyanin (APC) conjugate and a europium (Eu) labeled antibody directed against phosphorylated-BAD (S112). […] The fluorescence is directly proportional to the amount of phosphorylated BAD peptide present in the reaction.
A reference compound was included on each assay plate in order to validate that plate; on one plate of every assay run, two additional reference compounds were included.
The final buffer conditions were as follows: 60 mM Hepes, pH 7.0, 0.05% BSA, 2 mM DTT. […] The reaction was stopped by the addition of 3 mM EDTA, and fluorescence was measured by an HTRF® Rubystar microplate reader. For each plate, percent of control (POC) values were calculated for each well. Values for the IC50 IP were estimated using a standard 4-parameter logistic model.

[4] = target: T4, Pim-1 stably transfected into the U2OS human osteogenic sarcoma line (Homo sapiens, UniProt P11309); assay: Pim cell assay, phospho-BAD normalized against total BAD, U2OS stably transfected with Pim-1; assay type: cell-based; conditions: read-out: Pim1_Cell_IC50
T4 construct: expressed in transfected cells; host or cells: U2OS human osteogenic sarcoma line
T4 sequence (P11309 whole entry): as the sequence (P11309 whole entry) above
Summary of the method: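 U2OS cells stably expressing Pim-1 or Pim-2 were plated overnight at 37 °C, then dosed over a 10-point curve (final 0.3% DMSO; DMSO alone as high control). Lysates assayed for phospho- and total BAD by Meso Scale immunoassay; % phosphoprotein = (2×phospho)/(phospho+total)×100.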

[5] = U2OS cells stably transfected with Pim-1, phospho-BAD, high dose […]

SMILES | IC50 [1] | IC50 [2] | IC50 [3] | IC50 [4, 5] | IC50 [4]
Fc1cccc(F)c1-c1ccc2[nH]nc(-c3cncc(O[C@@H]4CNCC[C@H]4F)n3)c2c1 (single isomer, unassigned) [Example 19, 5-(2,6-difluorophenyl)-3-(6-(trans-4-fluoropiperidin-3-yloxy)pyrazin-2-yl)-1H-indazole] | 5 nM | 28 nM | 7 nM | 254 nM | 
COc1nc2ccccc2cc1-c1ccc2[nH]nc(-c3cncc(N4CCC(N)CC4)n3)c2c1 [Example 2, 1-(6-(5-(2-methoxyquinolin-3-yl)-1H-indazol-3-yl)pyrazin-2-yl)piperidin-4-amine] | 28 nM | 769 nM | 61 nM | 2630 nM | 
NC1CCN(c2cncc(-c3c[nH]c4ccc(-c5c(F)cccc5F)nc34)c2)CC1 [Example 32, 1-(5-(5-(2,6-difluorophenyl)-1H-pyrrolo[3,2-b]pyridin-3-yl)pyridin-3-yl)piperidin-4-amine] | 19 nM | 586 nM | 67 nM |  | 907 nM
NC1CCN(c2cncc(-c3n[nH]c4ccc(-c5cc6ccccc6nc5O)cc34)n2)CC1 [Example 54, 3-(3-(6-(4-amino-1-piperidinyl)-2-pyrazinyl)-1H-indazol-5-yl)-2-quinolinol] | 7 nM | 183 nM | 4 nM | 3660 nM | 
NC1CCN(c2cncc(-c3n[nH]c4ccc(N5CCOCC5)cc34)n2)CC1 [Example 89, 1-(6-(5-(4-morpholinyl)-1H-indazol-3-yl)-2-pyrazinyl)-4-piperidinamine] | 28 nM | 303 nM | 49 nM | 868 nM | 
Nc1cc(-c2ccc3[nH]nc(-c4cncc(N5CCC(N)CC5)n4)c3c2)ccc1N1CCOCC1 [Example 105, 1-(6-(5-(3-amino-4-(4-morpholinyl)phenyl)-1H-indazol-3-yl)-2-pyrazinyl)-4-piperidinamine] | 2 nM | 43 nM | 5 nM | 484 nM | 
CN(C)c1cccc(-c2ccc3[nH]nc(-c4cncc(N5CCC(N)CC5)n4)c3c2)c1 [Example 108, 1-(6-(5-(3-(dimethylamino)phenyl)-1H-indazol-3-yl)-2-pyrazinyl)-4-piperidinamine] | 9 nM | 153 nM | 6 nM | 866 nM | 
NC1CCN(c2cncc(-c3n[nH]c4ccc(-c5ccnc6cc(F)ccc56)cc34)n2)CC1 [Example 110, 1-(6-(5-(7-fluoro-4-quinolinyl)-1H-indazol-3-yl)-2-pyrazinyl)-4-piperidinamine] | 8 nM | 151 nM | 23 nM | 776 nM | 
Fc1cccc(F)c1-c1ccc2[nH]cc(-c3nccc(NC4CCNCC4)n3)c2c1 [Example 210, 2-(5-(2,6-difluorophenyl)-1H-indol-3-yl)-N-4-piperidinyl-4-pyrimidinamine] | 120 nM | 424 nM | 91 nM |  | 
Nc1ccc2[nH]cc(-c3cncc(N4CCC(N)CC4)n3)c2c1 [Example 233, 3-(6-(4-aminopiperidin-1-yl)pyrazin-2-yl)-1H-indol-5-amine] | 845 nM | > 3000 nM | 1760 nM |  | 
CCC(=O)Nc1ccc2[nH]cc(-c3cncc(N4CCC(N)CC4)n3)c2c1 [Example 234, N-(3-(6-(4-aminopiperidin-1-yl)pyrazin-2-yl)-1H-indol-5-yl)propionamide] | 161 nM | 2570 nM | 348 nM |  | 
NC1CCN(c2cncc(-c3c[nH]c4ccc(NC(=O)c5ccccc5)cc34)n2)CC1 [Example 235, N-(3-(6-(4-aminopiperidin-1-yl)pyrazin-2-yl)-1H-indol-5-yl)benzamide] | 121 nM | 1870 nM | 151 nM |  | 
NC1CCN(c2cncc(-c3c[nH]c4ccc(C(=O)O)cc34)n2)CC1 [Example 237, 3-(6-(4-aminopiperidin-1-yl)pyrazin-2-yl)-1H-indole-5-carboxylic acid] | 195 nM | 325 nM | 122 nM |  | 
NC(=O)c1ccc2[nH]cc(-c3cncc(N4CCC(N)CC4)n3)c2c1 [Example 238, 3-(6-(4-aminopiperidin-1-yl)pyrazin-2-yl)-1H-indole-5-carboxamide] | 107 nM | 755 nM | 311 nM |  | 
CC(C)NC(=O)c1ccc2[nH]cc(-c3cncc(N4CCC(N)CC4)n3)c2c1 [Example 239, 3-(6-(4-aminopiperidin-1-yl)pyrazin-2-yl)-N-isopropyl-1H-indole-5-carboxamide] | 166 nM | > 3000 nM | 347 nM |  | 

Results, then the compound that gave them:

IC50 [1] | IC50 [2] | IC50 [3] | IC50 [4, 5] | IC50 [4] | SMILES
37 nM | 187 nM | 18 nM |  |  | C[C@@H]1CCNC[C@H]1Oc1cncc(-c2n[nH]c3ccc(-c4c(F)cccc4F)cc23)n1 [Example 197, 5-(2,6-difluorophenyl)-3-(6-(((3S,4R)-4-methyl-3-piperidinyl)oxy)-2-pyrazinyl)-1H-indazole]
45 nM | 515 nM | 83 nM |  |  | Fc1cccc(F)c1-c1ccc2[nH]cc(-c3cncc(O[C@H]4CCCNC4)n3)c2c1 [Example 214, 5-(2,6-difluorophenyl)-3-(6-((3S)-3-piperidinyloxy)-2-pyrazinyl)-1H-indole]
1640 nM | > 3000 nM | 538 nM |  |  | CC(C)Oc1cncc(-c2ccc3[nH]cc(-c4ccc(F)cn4)c3c2)n1 [Example 215, 3-(5-fluoro-2-pyridinyl)-5-(6-(1-methylethoxy)-2-pyrazinyl)-1H-indole]
601 nM | 2150 nM | 245 nM |  |  | Cc1ccnc(-c2c[nH]c3ccc(-c4cncc(OC(C)C)n4)cc23)c1 [Example 216, 5-(6-(1-methylethoxy)-2-pyrazinyl)-3-(4-methyl-2-pyridinyl)-1H-indole]
765 nM | 2350 nM | 156 nM |  |  | CC(C)Oc1cncc(-c2ccc3[nH]cc(-c4cccc(N)n4)c3c2)n1 [Example 217, 6-(5-(6-(1-methylethoxy)-2-pyrazinyl)-1H-indol-3-yl)-2-pyridinamine]
805 nM | > 3000 nM | 317 nM |  |  | CC(C)Oc1cncc(-c2ccc3[nH]cc(-c4cc(N)ccn4)c3c2)n1 [Example 218, 2-(5-(6-(1-methylethoxy)-2-pyrazinyl)-1H-indol-3-yl)-4-pyridinamine]
1130 nM | > 3000 nM | 692 nM |  |  | Cc1ccc(-c2c[nH]c3ccc(-c4cncc(OC(C)C)n4)cc23)nc1 [Example 219, 5-(6-(1-methylethoxy)-2-pyrazinyl)-3-(5-methyl-2-pyridinyl)-1H-indole]
494 nM | > 3000 nM | 329 nM |  |  | CC(C)Oc1cncc(-c2ccc3[nH]cc(-c4cccc(N5CCOCC5)n4)c3c2)n1 [Example 220, 5-(6-(1-methylethoxy)-2-pyrazinyl)-3-(6-(4-morpholinyl)-2-pyridinyl)-1H-indole]
732 nM | > 3000 nM | 445 nM |  |  | COc1cnc(-c2c[nH]c3ccc(-c4cncc(OC(C)C)n4)cc23)cn1 [Example 222, 3-(5-methoxy-2-pyrazinyl)-5-(6-(1-methylethoxy)-2-pyrazinyl)-1H-indole]
142 nM | > 3000 nM | 150 nM |  |  | CC(C)Oc1cncc(-c2ccc3[nH]cc(-c4cccc(-n5cccn5)n4)c3c2)n1 [Example 223, 5-(6-(1-methylethoxy)-2-pyrazinyl)-3-(6-(1H-pyrazol-1-yl)-2-pyridinyl)-1H-indole]
216 nM | 2270 nM | 126 nM |  |  | COc1cncc(-c2c[nH]c3ccc(-c4cncc(OC(C)C)n4)cc23)n1 [Example 224, 3-(6-methoxy-2-pyrazinyl)-5-(6-(1-methylethoxy)-2-pyrazinyl)-1H-indole]
2200 nM | > 3000 nM | 616 nM |  |  | CC(C)Oc1cncc(-c2ccc3[nH]cc(-c4cccc(OC(C)C)n4)c3c2)n1 [Example 226, 5-(6-(1-methylethoxy)-2-pyrazinyl)-3-(6-(1-methylethoxy)-2-pyridinyl)-1H-indole]
251 nM | > 3000 nM | 147 nM |  |  | CC(C)Oc1cncc(-c2ccc3[nH]cc(-c4cccc(N5CCCC5=O)n4)c3c2)n1 [Example 229, 1-(6-(5-(6-(1-methylethoxy)-2-pyrazinyl)-1H-indol-3-yl)-2-pyridinyl)-2-pyrrolidinone]
